The text below walks through data of US20070129320A9, “Methods and compositions for inducing innate immune responses” (Coley Pharmaceutical Group, Ltd., priority 2004, published 2007).

Experiment [1] relates to Renca (renal carcinoma) cells. Briefly: Renal cell carcinoma (Renca) tumor model in mice: survival and tumor growth. To be noted: co-administration of immune stimulating complex (ISCOMATRIX adjuvant) with ODN 7909, compared with either agent alone.
Description: • Mice: All experiments were carried out using female BALB/c mice aged 6-8 weeks with 10 mice per experimental or control group. • Oligonucleotides: All oligonucleotides were obtained from Coley Pharmaceutical GmbH, Langenfeld, Germany. • Immune stimulating complexes: ISCOMATRIX® adjuvant, herein referred to as IMX, was the immune stimulating complex used in these Examples.
Female BALB/c mice (n=10 per group) were injected with 2×10^5 Renca (renal carcinoma) cells by SC injection into the left flank. Animals were treated with CpG 7909 alone, ISCOMATRIX® (IMX) alone or a combination of CpG 7909 and INIX administered by SC injection into the tumor perimeter weekly from day 10-28 post tumor cell injection. Control animals were injected with 100 μl of phosphate buffered saline (PBS) weekly from day 10-38 post tumor cell injection. Animals were monitored for survival (FIG. 1, panel A) and tumor growth (FIG. 1, panel B). Tumor size (length and width) was measured using a digital vernier calliper. Tumor volume was calculated by using the formula: Tumor volume=(0.4) (ab2), where a=large diameter and b=smaller diameter. In the tumor volume graph (FIG. 1, panel B), changes in average tumor volume are indicated until 50% death in each animal group.
A further experiment deals with murine cancer models. To be noted: cited from earlier work.

As for “TCGTCGTTTTGTCGTTTTGTCGTT [CpG 7909]”, in experiment [1], the survival entry was “increased survival” and the tumor growth entry was “controlled tumor growth better than did either agent alone”. In addition, the anti-tumor effects result in the experiment on murine cancer models (several murine cancer models, demonstrated previously) is reported as “demonstrated previously”. Further, in the experiment with murine cancer models (shown previously), the “effect on anti-tumor effects of chemotherapeutic drugs” value is reported as “augment the anti-tumor effects of some chemotherapeutic drugs”.
